Laboratory results from patent US4428942A, “Analogs of somatostatin” (The Salk Institute for Biological Studies, priority 1982, dated 1984).
Where two headings read alike, the source gives them in different places. Bridge positions count the residues as written; N and C are the ends. Peptide text beside a SMILES is read from it.

Tests used:
[1] = system: isolated rabbit ileum
Procedure: The analogs are tested in vitro in isolated rabbit ileum using the modified Ussing chamber technique, as described in Amer. J. of Physiol., 225:776-780 (1973). Unidirectional chloride fluxes are determined and used to characterize bi-directional fluxes following the addition of an SS-analog. Changes are measured with varying concentrations, and the potency to inhibit ion transport is quantitated and expressed as a percentage of the potency of SS-14.

[2] = system: release of growth hormone induced by isobutyl methyl xanthine in pituitary cells; type: cell-based, rat
Procedure: To determine the effectiveness of the peptides to inhibit the release of growth hormone, in vitro radioimmunoassays are carried out using the SS analogs in side-by-side comparison with equimolar concentrations of somatostatin-14 having a known effectiveness to inhibit the release of growth hormone induced by the application of isobutyl methyl xanthine to pituitary cells. Cultures are used which include cells of rat pituitary glands removed some four to five days previously in a system that minimizes enzymatic degradation, generally following the procedure set forth in Vale et al., Methods in Enzymology, Hormones and Cyclic Nucleotides (1975) Vol. 37, p. 82. Both cultures of a defined standard medium and cultures which are considered optimal for the secretion of growth hormone, as a result of having additions of either 2% or 10% of serum from a foetal calf, are used for the comparative testing.

[3] = system: secretion of glucagon; design: species or system rats; conditions: in vivo
Procedure: (§1) In vivo experiments are carried out with the analogs, using the procedure described in Brown et al., Metabolism (1976) Vol. 25, pp. 1501-1503, to determine the potency, relative to somatostatin-14, to inhibit the secretion of glucagon and insulin stimulated by the administration of arginine to groups of six rats.

[4] = system: secretion of insulin; conditions: in vivo
Procedure: as §1

[5] = isolated rabbit ileum, Ussing chamber, chloride fluxes, SS-14 = 100
[6] = cultured rat pituitary cells, isobutyl methyl xanthine-induced release, SS-14 = 100
[7] = arginine-stimulated, rats, SS-14 = 100

Row | Compound | Ion Transport (potency to inhibit ion transport expressed as a percentage of the potency of SS-14) [1] [%] | GH (potency for the inhibition of GH release relative to SS-14) [2] [%] | Glucagon (potency to inhibit glucagon secretion relative to SS-14) ([3]; rat) [%] | Insulin (potency to inhibit insulin secretion relative to SS-14) ([4]; rat) [%] | Ion Transport (potency to inhibit ion transport expressed as a percentage of the potency of SS-14) [1, 5] [%] | GH (potency for the inhibition of GH release relative to SS-14) [2, 6] [%] | Glucagon (potency to inhibit glucagon secretion relative to SS-14) [3, 7] [%] | Insulin (potency to inhibit insulin secretion relative to SS-14) [4, 7] [%]
1 | C[C@H](N)C(=O)NCC(=O)N[C@H]1CSSC[C@@H](C(=O)O)NC(=O)[C@H]([C@@H](C)O)NC(=O)[C@H](Cc2ccccc2)NC(=O)[C@H]([C@@H](C)O)NC(=O)[C@H](CCCCN)NC(=O)[C@H](Cc2c[nH]c3ccccc23)NC(=O)[C@H](Cc2ccccc2)NC(=O)[C@H](Cc2ccccc2)NC(=O)[C@H](CC(N)=O)NC(=O)[C@H](CCCCN)NC1=O [Peptide 14, des-Ser^13 --SS] (H-AGCKNFFWKTFTC-OH; disulfide 3-13) | 9 | 2 | < 1 | < 1 | – | – | – | –
2 | C[C@H](N)C(=O)NCC(=O)N[C@H]1CSSC[C@@H](C(=O)O)NC(=O)[C@H](CO)NC(=O)[C@H]([C@@H](C)O)NC(=O)[C@H](Cc2ccccc2)NC(=O)[C@H]([C@@H](C)O)NC(=O)[C@H](CCCCN)NC(=O)[C@H](Cc2c[nH]c3ccccc23)NC(=O)[C@H](Cc2ccccc2)NC(=O)[C@H](Cc2ccccc2)NC(=O)[C@H](CC(N)=O)NC(=O)[C@@H](CCCCN)NC1=O [Peptide 15, [D-Lys^4]--SS] | – | – | – | – | 139 | 22 | 1 | 1
3 | C[C@H](N)C(=O)NCC(=O)N[C@H]1CSSC[C@@H](C(=O)O)NC(=O)[C@H](CO)NC(=O)[C@H]([C@@H](C)O)NC(=O)[C@H](Cc2ccccc2)NC(=O)[C@H]([C@@H](C)O)NC(=O)[C@H](CCCCN)NC(=O)[C@H](Cc2c[nH]c3ccccc23)NC(=O)[C@H](Cc2ccccc2)NC(=O)[C@@H](Cc2ccccc2)NC(=O)[C@H](CC(N)=O)NC(=O)[C@H](CCCCN)NC1=O [Peptide 16, [D-Phe^6]--SS] | – | – | – | – | 10 | 5 | < 1 | < 1
4 | C[C@H](N)C(=O)NCC(=O)N[C@H]1CSSC[C@H](C(=O)O)NC(=O)[C@H](CO)NC(=O)[C@H]([C@@H](C)O)NC(=O)[C@H](Cc2ccccc2)NC(=O)[C@H]([C@@H](C)O)NC(=O)[C@H](CCCCN)NC(=O)[C@H](Cc2c[nH]c3ccccc23)NC(=O)[C@H](Cc2ccccc2)NC(=O)[C@H](Cc2ccccc2)NC(=O)[C@H](CC(N)=O)NC(=O)[C@H](CCCCN)NC1=O [Peptide 17, [D-Cys^14]--SS] | – | – | – | – | 336 | 270 | 310 | 20
5 | C[C@H](N)C(=O)NCC(=O)N[C@H]1CSSC[C@@H](C(=O)O)NC(=O)[C@H](CO)NC(=O)[C@H]([C@@H](C)O)NC(=O)[C@H](Cc2ccccc2)NC(=O)[C@H]([C@@H](C)O)NC(=O)[C@H](CCCCN)NC(=O)[C@H](Cc2c[nH]c3ccccc23)NC(=O)[C@H](Cc2ccccc2)NC(=O)[C@H](Cc2ccccc2)NC(=O)[C@H](CC(N)=O)NC(=O)[C@H](CCCCN)NC1=O [SS-14, somatostatin] | – | – | – | – | 100 | 100 | 100 | 100
